In patent US6506555B1, “Use of HIV protease inhibiting compounds” (Institut National de la Sante et de la Recherche Medicale …, priority 1998, dated 2003):

Assays:
[1] = test system: cytotoxic T lymphocytes; type: in vivo, C57BL/6 mice; conditions: mice infected in the footpad with LCMV-WE; swelling after seven to eight days
[2] = test system: LCMV; type: in vivo, mice; conditions: day D8; 200 pfu LCMV i.v.
[3] = test system: antibodies specific for the LCMV nucleoprotein and glycoprotein; test: Antibody response to LCMV nucleoprotein and glycoprotein (ELISA); type: in vivo, mice; conditions: ELISA after four and eight weeks
Method: The antibodies specific for the LCMV nucleoprotein and for the LCMV glycoprotein were evaluated after four and eight weeks by an ELISA test as described in O. Planz, P. Seiler, H. Hengartner and R. M. Zinkernagel, Nature, 382, 629 […].

[4] = molecular target: T1, 20S proteasomes isolated from murine B8 fibroblasts (Mus musculus, UniProt O55234+P70195+Q60692); test: Hydrolysis of fluorogenic substrates by isolated 20S proteasomes; type: biochemical
T1 construct: 20S proteasomes isolated from murine B8 fibroblasts; endogenous in cells; host or cells: murine B8 fibroblasts; 20S proteasome purified from the cells
Method: FIGS. 4B, 4C and 4D show the hydrolysis of the fluorogenic substrate (100 μM Suc-LLVY-MCA, 100 μM (Z)-GGL-MCA and 400 μM Bz-VGR-MCA) of the 20S proteasomes isolated from murine B8 fibroblasts, as a function of variable concentrations of ritonavir and of LLnL (N-acetyl-L-leucinyl-L-leucinal-L-norleucinal, known inhibitor of the proteasome). The results are reported for one hour of digestion with the 20S proteasome (500 ng) in a final volume of 100 μl. The values were located in a linear detection domain and are the mean values of triplicates with standard errors of less than 3%.
The hydrolysis of Suc-LLVY-MCA by the 20S murine proteasomes was tested according to the method described in Example 4.2. under identical conditions except for the fact that a different batch of purified proteasomes was used. The hydrolysis of Suc-LLVY-MCA was measured in the presence of increasing concentrations of ritonavir, nelfinavir (Roche), saquinavir (mesylate) and indinavir (active ingredient of Crixivan® marketed by Merck and Sharp and Dohme). The HIV protease inhibitors were dissolved beforehand in ethanol, methanol, DMSO and water respectively, for use in vitro (FIG. 4E).

[5] = test system: class I molecules; test: Maturation and surface expression of class I molecules; type: cell-based
[6] = test system: Hybridoma (MHC-I); test: IL-2 release by hybridoma FT6.9 cocultured with NOD pancreatic islets; type: cell-based, NOD mice
Method: (§1) Ritonavir (0.6 mg per 10 g of body weight per day) or a placebo (phosphate buffer PBS) was administered by the intraperitoneal route to NOD mice. The pancreatic islets were removed and cultured for 24 hours in the presence or in the absence of 2.5 μg/ml of ritonavir. The cells were then cocultured with MHC-1-restricted hybridomas (FT6.9 and FT7.9 for 24 hours). The quantity of IL-2 was assayed in the supernatant. The following tables present the quantities of IL-2 measured by a test of proliferation (cpm×10^−3).

[7] = test system: Hybridoma ETG.9 (MHC-I); test: as above; type: cell-based, NOD mice
Method: as §1

[8] = test system: Hybridoma FT7.9 (MHC-I); test: IL-2 release by hybridoma FT7.9 cocultured with NOD pancreatic islets; type: cell-based, NOD mice
Method: as §1

[9] = Appearance of type 1 diabetes in NOD mice; type: in vivo; conditions: ritonavir versus diluent
Method: FIG. 5 represents the percentage of nondiabetic NOD mice as a function of time, in the case of a treatment with ritonavir compared with administration of a diluent.
as §1, with “supernatant.” for “supernatant. The following tables present the quantities of IL-2 measured by a test of proliferation (cpm×10^−3).”

[10] = Experimental allergic encephalitis in rats; type: in vivo, Lewis rats; design: key to clinical score of EAE: 1: weakness of the movements of the tail; 2: incomplete paralysis of the hindquarters; 3: complete paralysis of the hindquarters; 4: incomplete paralysis of the forequarters; 5: total immobility
Method: Experimental allergic encephalitis in rats is the only model of multiple sclerosis in humans. The guinea pig MBP (Myelin Basic Protein) is administered to 7-week old female Lewis rats by a subcutaneous injection, into the footpad, of 50 μg of MBP in 100 μl of complete Freund's adjuvant supplemented with 4 μg/ml of mycobacteria. There are administered, in addition, to these rats, daily, either 1 mg, 5 mg or 10 mg of ritonavir, per animal, or a placebo (phosphate buffer) of MBP injection until the animals not treated with ritonavir are killed. The clinical scores measuring the progression of the experimental allergic […] following: 1: weakness of the movements of the tail; 2: incomplete paralysis of the hindquarters; 3: complete paralysis of the hindquarters; 4: incomplete paralysis of the forequarters; and 5: total immobility. About eight days after this immunization with MBP, the control rats started to show the first stages of paralysis (temporary) due to the immune response caused by the administration of myelin.

[11] = test system: M113 cells presenting the MART-1 antigen; test: TNFα production by M77-84 T lymphocytes in response to treated M113 melanoma cells; conditions: M113 cells cultured 24 hours with various concentrations
[12] = 100 μM substrate, one hour digestion, 500 ng 20S proteasome
[13] = in vivo PBS, in vitro ritonavir 2.5 μg/ml
[14] = in vivo ritonavir, in vitro PBS
[15] = in vivo ritonavir, in vitro ritonavir

## CC(C)c1nc(CN(C)C(=O)N[C@H](C(=O)N[C@@H](Cc2ccccc2)C[C@H](O)[C@H](Cc2ccccc2)NC(=O)OCc2cncs2)C(C)C)cs1 [ritonavir]
[1]
  swelling of the footpad after injection of LCMV: markedly inhibited
[2]
  viral clearance (titre of viruses in the spleen): decrease in the viral clearance
[3]
  capacity for synthesizing anti-virus antibodies: does not reduce
[4]; [12]
  hydrolysis of the fluorogenic substrate Suc-LLVY-MCA: potent inhibitor
  hydrolysis of the substrate (Z)-GGL-MCA: hardly affected
[4]; 400 μM substrate, one hour digestion, 500 ng 20S proteasome
  cleavage of the substrate Bz-VGR-MCA ("trypsin" type activity): substantially increased
[4]; different batch of purified proteasomes, increasing concentrations
  "chimotrypsin-like" activity (hydrolysis of Suc-LLVY-MCA), comparison of four HIV-1 protease inhibitors: inhibits
[4]; summary statement
  "chymotrypsin-like" activity of the proteasome: inhibited
  "trypsin" activity of the proteasome: increased
[5]
  expression at the surface of the class I molecules: not significantly blocked
  maturation of the class I molecules in the endoplasmic reticulum (resistance to endoglycosidase-H): not significantly blocked
[6]; [13]
  percentage in brackets (reduction of IL-2 versus PBS/PBS): 37%
[6]; [14]
  percentage in brackets (reduction of IL-2 versus PBS/PBS): 47%
[6]; [15]
  percentage in brackets (reduction of IL-2 versus PBS/PBS): 31%
[7]; cells isolated from NOD mice treated with ritonavir, statement covers both hybridomas
  recognition ex vivo of Langerhan's cells by cytotoxic T clones: no longer recognized
[7]; [13]
  quantity of IL-2 measured by a test of proliferation: 40 cpm×10^−3
[7]; [14]
  quantity of IL-2 measured by a test of proliferation: 34 cpm×10^−3
[7]; [15]
  quantity of IL-2 measured by a test of proliferation: 44 cpm×10^−3
[8]; [13]
  percentage in brackets (reduction of IL-2 versus PBS/PBS): 53%
  quantity of IL-2 measured by a test of proliferation: 43 cpm×10^−3
[8]; [14]
  percentage in brackets (reduction of IL-2 versus PBS/PBS): 24%
  quantity of IL-2 measured by a test of proliferation: 70 cpm×10^−3
[8]; [15]
  percentage in brackets (reduction of IL-2 versus PBS/PBS): 20%
  quantity of IL-2 measured by a test of proliferation: 74 cpm×10^−3
[9]
  appearance of type 1 diabetes: delays
[10]; other rats treated with 10 mg per animal daily
  clinical score of EAE: 1
[10]; rats treated with 10 mg per animal daily
  development of the disease (EAE): two did not develop the disease
[10]; rats treated with 1 and 5 mg per animal daily
  appearance of the first signs of paralysis: delayed
[11]
  presentation of MART-1 antigen: release of TNFα by M77-84 T lymphocytes: inhibition
